Measured values published in patent publication US8119643B2, “Benzoimidazolyl-pyrazine compounds for inflammation and immune-related uses” (Synta Pharmaceuticals Corp., priority 2006, dated 2012).
“Also recorded” adds a separate entry of the source.

Key:
[1] = system: IL-2 production; experiment: Inhibition of IL-2 production in PHA-activated Jurkat cells (ELISA); format: cell-based; conditions: Homo sapiens, PHA 2.5 μg/mL, 20 hours, IL-2 ELISA
Description: Jurkat cells were placed in a 96 well plate (0.5 million cells per well in 1% FBS medium) then a test compound of this invention was added at different concentrations. After 10 minutes, the cells were activated with PHA (final concentration 2.5 μg/mL) and incubated for 20 hours at 37° C. under CO2. The final volume was 200 μL. Following incubation, the cells were centrifuged and the supernatants were collected and stored at −70° C. prior to assaying for IL-2 production. A commercial ELISA kit (IL-2 Eli-pair, Diaclone Research, Besancon, France) was used to detect production of IL-2, from which dose response curves were obtained. The IC50 value was calculated as the concentration at which 50% of maximum IL-2 production after stimulation was inhibited versus a non-stimulation control.

[2] = system: Delayed-Type Hypersensitivity (DTH) reaction; experiment: Inhibition of delayed-type hypersensitivity (DTH) reaction in rats; format: in vivo, Lewis rats; conditions: rat DTH; for Inhibition of gross change (%) Ear thickness (mm) / Inhibition of gross change (%) Ear weight (mg): 15 mg/kg orally at −2, +3, +9 hr, 24 hr after OVA challenge, relative to vehicle-treated group; for effect on ear weight after ovalbumin challenge / effect on ear thickness after ovalbumin challenge: compared to vehicle alone; for effect on ear weight after ovalbumin challenge: FIGS. 1 and 2; for effect on ear thickness after ovalbumin challenge: FIGS. 3 and 4
Description: Lewis rats (n=7 each group) were sensitized with chicken ovalbumin (OVA; Sigma, A5503) and complete Freund's adjuvant (CFA; Sigma F5881) was injected into tail base by s.c. on day 0. On day 7, the animals were challenged with ovalbumin (OVA) on their right ears.
Compounds 1 and 10 were prepared in vehicle solution (20% Vitamin E TPGS and 80% PEG-8).
Female Lewis rats, 6-8 weeks of age, were obtained from Charles River Laboratories and permitted to acclimate for one week prior to experimental procedures. Rodents were allowed water and food ad libitum. Animals were housed in accordance with the Institutional Animal Care and Use Committee (IACUC), and experiments were performed in compliance with IACUC guidelines.
Rat ears were measured with a dial thickness gauge (Mitutoyo gauge #8, Mitutoyo, USA). The swelling response was calculated by subtracting the ear thickness before challenge (baseline) from that of the same ear after challenge. To measure the ear weight, both left and right ears of euthanized rats were punched out with cork holer, the ear weight change was calculated by subtracting the saline-treated left ear weight from that of the OVA-challenged right ear weight.
Delayed-type hypersensitivity is an in vivo T cell-dependent immune response manifested as an inflammatory reaction that reaches peak intensity 24 hr after OVA challenge. To determine the immunosuppressive effect of Compounds 1 and 10 in the rat DTH reaction, groups of rats (n=7) were administered with either vehicle, Compound 1 or Compound 10, orally three times, starting 2 hr before ear challenge, and 3 and 9 hr after ear challenge.

SMILES	IC50 [1] [nM]	Inhibition of gross change (%) Ear thickness (mm) [2] [%]	Inhibition of gross change (%) Ear weight (mg) [2] [%]	effect on ear weight after ovalbumin challenge [2]	effect on ear thickness after ovalbumin challenge [2]
COc1ccc2c(c1)nc(C(F)(F)F)n2-c1cnc(NC(=O)c2c(F)cccc2F)cn1 [Compound 1, 2,6-Difluoro-N-[5-(5-methoxy-2-trifluoromethyl-benzoimidazol-1-yl)-pyrazin-2-yl]-benzamide]	6	77	79	decreased ear weight; also recorded: significantly inhibited	decreased ear thickness; also recorded: significantly inhibited
COc1ccc2c(c1)nc(C(F)(F)F)n2-c1cnc(NC(=O)c2ccccc2C)cn1 [Compound 10, N-[5-(5-Methoxy-2-trifluoromethyl-benzoimidazol-1-yl)-pyrazin-2-yl]-2-methyl-benzamide]	12	15	24	even stronger effect on reducing ear thickness and weight after challenge than Compound 1; also recorded: reduced ear thickness and weight after challenge more than dosing with cyclosporine A	even stronger effect on reducing ear thickness and weight after challenge than Compound 1; also recorded: reduced ear thickness and weight after challenge more than dosing with cyclosporine A
COc1ccc2c(c1)nc(C(F)(F)F)n2-c1cnc(NC(=O)c2cc([N+](=O)[O-])ccc2C)cn1 [Compound 146, N-[5-(5-Methoxy-2-trifluoromethyl-benzoimidazol-1-yl)-pyrazin-2-yl]-2-methyl-5-nitro-benzamide]	18				
COc1ccc2c(c1)nc(C(F)(F)F)n2-c1cnc(NC(=O)c2ccc([N+](=O)[O-])c(OC)c2)cn1 [Compound 147, 3-Methoxy-N-[5-(5-methoxy-2-trifluoromethyl-benzoimidazol-1-yl)-pyrazin-2-yl]-4-nitro-benzamide]	> 1000				
COc1ccc2c(c1)nc(C(F)(F)F)n2-c1cnc(NC(=O)c2cc(Cl)ccc2F)cn1 [Compound 148, 5-Chloro-2-fluoro-N-[5-(5-methoxy-2-trifluoromethyl-benzoimidazol-1-yl)-pyrazin-2-yl]-benzamide]	98				
COc1ccc2c(c1)nc(C(F)(F)F)n2-c1cnc(NC(=O)c2ccc(F)c(F)c2F)cn1 [Compound 149, 2,3,4-Trifluoro-N-[5-(5-methoxy-2-trifluoromethyl-benzoimidazol-1-yl)-pyrazin-2-yl]-benzamide]	88				
COc1ccc2c(c1)nc(C(F)(F)F)n2-c1cnc(NC(=O)c2ccc([N+](=O)[O-])cc2F)cn1 [Compound 150, 2-Fluoro-N-[5-(5-methoxy-2-trifluoromethyl-benzoimidazol-1-yl)-pyrazin-2-yl]-4-nitro-benzamide]	126				
COc1ccc2c(c1)nc(C(F)(F)F)n2-c1cnc(NC(=O)c2cc(F)ccc2Cl)cn1 [Compound 151, 2-Chloro-5-fluoro-N-[5-(5-methoxy-2-trifluoromethyl-benzoimidazol-1-yl)-pyrazin-2-yl]-benzamide]	27				
COc1ccc2c(c1)nc(C(F)(F)F)n2-c1cnc(NC(=O)c2cc(Cl)ccc2OC)cn1 [Compound 152, 5-Chloro-2-methoxy-N-[5-(5-methoxy-2-trifluoromethyl-benzoimidazol-1-yl)-pyrazin-2-yl]-benzamide]	> 1000				
O=C(Nc1cnc(-n2c(C(F)(F)F)nc3cc(-c4ncco4)ccc32)cn1)c1c(F)cccc1F [Compound 153, 2,6-Difluoro-N-[5-(5-oxazol-2-yl-2-trifluoromethyl-benzoimidazol-1-yl)-pyrazin-2-yl]-benzamide]	15				
